Assay results taken from doi:10.1101/2024.12.16.628703v1 (bioRxiv, 2024).
Marks after values point to notes of the source that are not given here.

What was measured:
E. huxleyi = assay: CPP translocation by flow cytometry; format: cell-based, Emiliania huxleyi; conditions: for FITC-positive cells / FITC-positive cells achieved over the range tested: titer experiment, flow cytometry, average of 2 experiments; for FITC-positive cells achieved over the range tested: 20 to 320 µM CPP
G. oceanica = assay: CPP translocation by flow cytometry; format: cell-based, Gephyrocapsa oceanica; conditions: for increase in median fluorescence per increase in concentration of 1 µM: regression of titer data, FITC-positive population; for increase in median fluorescence per increase in concentration of 1 µM / regression equation, Median Fluorescence versus CPP concentration: separate experiment; for regression equation, Median Fluorescence versus CPP concentration: titer data 20-320 µM, flow cytometry ex 488 / em 525 nm
I. galbana [1] = assay: CPP translocation by flow cytometry; format: cell-based, Isochrysis galbana; conditions: for translocation (FITC-positive cells) / percentage of cells penetrated (FITC-positive): DOE, trypsin wash; for translocation (FITC-positive cells): FITC-Ahx-CPP 2 µM; for translocation (FITC-positive cells) / percentage of cells penetrated (FITC-positive) / FITC-positive cells achieved over the range tested / FITC-positive cells: flow cytometry; for percentage of cells penetrated (FITC-positive): FITC-Ahx-CPP 10 µM; for FITC-positive cells achieved over the range tested / FITC-positive cells: titer experiment, single experiment; for FITC-positive cells achieved over the range tested: 20 to 320 µM CPP
I. galbana [2] = assay: Viability / cell proliferation after CPP transfection; format: cell-based, Isochrysis galbana; conditions: growth curve 14 days
animal cells = conditions: ref [7],[8],[23]; cited from earlier work
algae = conditions: ref [7],[8],[23]; cited from earlier work
[3] = titer data 20-320 µM, separate experiment, flow cytometry ex 488 / em 525 nm

Sequence	FITC-positive cells (E. huxleyi; 20 µM CPP)	FITC-positive cells (E. huxleyi; 160 µM CPP)	FITC-positive cells (E. huxleyi; 320 µM CPP)	FITC-positive cells achieved over the range tested (E. huxleyi)	increase in median fluorescence per increase in concentration of 1 µM (G. oceanica) [RFU]	regression equation, Median Fluorescence versus CPP concentration (G. oceanica)	translocation (FITC-positive cells) (I. galbana [1])	percentage of cells penetrated (FITC-positive) (I. galbana [1])	FITC-positive cells achieved over the range tested (I. galbana [1]) [%]	also measured
GRKKRRQRRRPPQ [TAT, transactivating transcriptional activator]	less than 20%	over 40%	over 60%	< 80%	53	10953 + 52.48 * TAT concentration	do not translocate	do not translocate	< 20	regression equation, Median Fluorescence versus CPP concentration (E. huxleyi; [3]): 15145 + 35.47 * TAT concentration; regression equation, Median Fluorescence versus CPP concentration (I. galbana [1]; [3]): 16534 + 11.73 * TAT concentration
LLIILRRRIRKQAHAHSK [pVEC, murine vascular endothelial cadherin]	> 80%	more than 90%	over 95%	more than 80%	184	16133 + 184.1 * pVEC concentration	–	39%	80	effect on median fluorescence with rising concentration (E. huxleyi; titer experiment 20-320 µM): reaches a plateau from 160 to 320 µM; optimal concentration for translocation, irrespective of viability (E. huxleyi; titer experiment 20-320 µM): 160 µM; optimal concentration for translocation, irrespective of viability (G. oceanica; titer experiment 20-320 µM): 160 µM; percent-positive achieved over the range tested (G. oceanica; titer experiment, 20 to 320 µM CPP, flow cytometry, average of 2 experiments): more than 80%; optimal concentration for translocation, irrespective of viability (I. galbana [1]; titer experiment 20-320 µM): 80 µM; FITC-positive cells (I. galbana [1]; 20 µM CPP): less than 20%; FITC-positive cells (I. galbana [1]; 80 µM CPP): over 90%; FITC-positive cells (I. galbana [1]; 160 µM CPP): approximately 85%; proliferation of cells sorted for high FITC fluorescence (I. galbana [2]; 160 and 320 µM pVEC, sorted by FACS): proliferation of viable cells; viability after CPP treatment (I. galbana [2]; pVEC at 20 µM, sorted cells): apparent decrease in viability
RQIKIWFQNRRMKWKK [pAntp, antennapedia homeodomain]	–	–	–	–	–	–	do not translocate	–	–	cytotoxicity at concentrations as low as (animal cells): 40 µM; cytotoxicity at concentrations as low as (algae): 10 µM
